For one data set, the target named is T1, NHE1 (Homo sapiens, UniProt P19634).
T1 construct: expressed in transfected cells
As to the kind of experiment: NHE inhibition FLIPR test (intracellular pH recovery, BCECF) in transfected LAP-1 cells. Format: cell-based. To be noted: transfected cell line (parental LAP-1) expressing the NHE-1 subtype, pHi recovery after acidification. Here is the method: The NHE inhibitory activities (IC50 values) of the compounds according to the invention were determined by a FLIPR test.
The test is performed in the FLIPR (Fluorescent Imaging Plate Reader) equipped with clear-bottomed and black-walled 96-well microtitration plates.
The growth medium for the transfected cells (Iscove +10% foetal calf serum) also comprises G418 as selection antibiotic to ensure the presence of transfected sequences.
The actual test begins by eliminating the growth medium and adding 100 μl of loading buffer per well (5 μM of BCECF-AM [2′,7′-bis(2-carboxyethyl)-5-(6)-carboxyfluoresceine acetoxymethyl ester] in 20 mM of NH4Cl, 115 mM of choline chloride, 1 mM of CaCl2, 5 mM of KCl, 20 mM of HEPES and 5 mM of glucose; pH 7.4 (adjusted with KOH). The cells are then incubated for 20 minutes at 37° C. This incubation results in the loading of the fluorescent dye into the cells, the fluorescence intensity of which depends on the pHi, and on the NH4Cl, which results in a slight basification of the cells.
The precursor BCECF-AM, a non-fluorescent dye, is, as an ester, capable of crossing the membrane. The actual dye, which is incapable of crossing the membrane, is released inside the cell by esterases.
After this 20-minute incubation, the loading buffer, which comprises NH4Cl and free BCECF-AM, is removed by washing three times in the cell washing device (Tecan Columbus), each wash being performed with 400 μl of washing buffer (133.8 mM of choline chloride, 4.7 mM of KCl, 1.25 mM of MgCl2, 1.25 mM of CaCl2, 0.97 mM of K2HPO4, 0.23 mM of KH2PO4, 5 mM of HEPES and 5 mM of glucose; pH 7.4 (adjusted with KOH)). The residual volume remaining in the wells is 90 μl (possibly between 50 and 125 μl). This washing step removes the free BCECF-AM and results in an intracellular acidification (pHi of 6.3-6.4) due to the removal of the external ammonium ions.
As the equilibrium of the intracellular ammonium with the aqueous ammonia and the protons, by removal of the extracellular ammonium and by the subsequent immediate crossing of the aqueous ammonia across the cell membrane, is disrupted, the washing process results in intracellular protons remaining, which is the cause of the intracellular acidification. This acidification can result finally in the death of the cells if it lasts long enough. It is important here for the washing buffer to be free of sodium (<1 mM), otherwise the extracellular sodium ions would result in an immediate increase in the pHi on account of the activity of the cloned NHE isoforms. It is also important for all the buffers used (loading buffer, washing buffer and regeneration buffer) not to contain any HCO3-ions, otherwise the presence of bicarbonate would result in the activation of bicarbonate-dependent systems that disrupt the pHi regulation, which systems are contained in the LAP-1 parental cell line.
The microtiter plates containing acidified cells are then transferred (up to 20 minutes after the acidification) to the FLIPR. In the FLIPR, the intracellular fluorescent dye is activated with light of a wavelength of 488 nm, which is generated by an argon laser, and the measuring parameters (laser power, illumination time and diaphragm of the […] camera integrated into the FLIPR) are chosen such that the average value of the fluorescent signal per well is between 30,000 and 35,000 relative fluorescence units.
The actual measurement in the FLIPR starts with a photograph being taken by the CCD camera every two seconds under software control. After 10 seconds, the increase in the intracellular pH is initiated by adding 90 μl of regeneration buffer (133.8 mM of NaCl, 4.7 mM of KCl, 1.25 mM of MgCl2, 1.25 mM of CaCl2, 0.97 mM of K2HPO4, 0.23 mM of KH2PO4, 10 mM of HEPES and 5 mM of glucose; pH 7.4 (adjusted with NaOH)) using a 96-well pipette device incorporated into the FLIPR. Some wells, to which is added pure regeneration buffer, serve as positive controls (100% NHE activity). […]

Molecules are shown by their SMILES.

Experimental findings from patent US7078428B2, “Isoindolone derivatives, preparation process and intermediates of this process, their use as medicaments, and pharmaceutical compositions comprising them” (Sanofi-Aventis Deutschland GmbH, priority 2002, dated 2006) are described below.

One may read the melting point as the temperature, or range, at which the solid turns liquid. One may read the IC50 as the midpoint of a concentration-inhibition curve.

T1 sequence (P19634 whole entry, species assumed): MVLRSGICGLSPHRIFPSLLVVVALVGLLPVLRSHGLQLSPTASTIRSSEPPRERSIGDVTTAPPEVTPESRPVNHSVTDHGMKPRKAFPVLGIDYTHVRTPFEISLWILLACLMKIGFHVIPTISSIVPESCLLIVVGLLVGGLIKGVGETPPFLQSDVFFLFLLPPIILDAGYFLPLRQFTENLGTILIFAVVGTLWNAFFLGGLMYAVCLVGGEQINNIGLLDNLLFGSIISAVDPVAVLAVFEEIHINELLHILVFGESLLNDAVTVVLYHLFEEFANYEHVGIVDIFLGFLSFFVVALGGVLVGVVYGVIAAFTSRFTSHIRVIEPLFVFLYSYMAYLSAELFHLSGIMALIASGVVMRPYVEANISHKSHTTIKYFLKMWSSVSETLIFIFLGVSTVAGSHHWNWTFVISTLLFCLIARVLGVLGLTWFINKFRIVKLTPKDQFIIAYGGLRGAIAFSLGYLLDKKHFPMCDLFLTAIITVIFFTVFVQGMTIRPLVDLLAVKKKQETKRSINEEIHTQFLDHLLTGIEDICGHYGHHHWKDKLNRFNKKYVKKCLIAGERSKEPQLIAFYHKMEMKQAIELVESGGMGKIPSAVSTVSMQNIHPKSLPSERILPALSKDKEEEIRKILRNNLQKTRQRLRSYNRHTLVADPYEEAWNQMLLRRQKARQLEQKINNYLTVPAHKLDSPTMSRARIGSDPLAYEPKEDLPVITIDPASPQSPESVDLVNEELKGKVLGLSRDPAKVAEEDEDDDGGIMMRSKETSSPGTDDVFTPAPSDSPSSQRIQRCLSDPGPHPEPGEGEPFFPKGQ

Consider `CCCN1C(=O)c2ccccc2C1CC(=O)N=C(N)N` (stereo not shown) [Example 5, N-[2-(3-Oxo-2-propyl-2,3-dihydro-1H-isoindol-1-yl)acetyl]guanidine], for which the melting point was found to be 229 °C. Further, the IC50 on NHE1 turned out to be 92 nM.

`CC(C)CN1C(=O)c2ccc(C(C)(C)C)cc2C1CC(=O)N=C(N)N` (stereo not shown) [Example 10, N-[2-(6-tert-Butyl-2-isobutyl-3-oxo-2,3-dihydro-1H-isoindol-1-yl)acetyl]guanidine] displayed a melting point of 214 to 215 °C. Besides, the IC50 at NHE1 was 15 nM.

Take `CC(C)CN1C(=O)c2c(F)ccc(F)c2C1CC(=O)N=C(N)N` (stereo not shown) [Example 19, N-[2-(4,7-Difluoro-2-isobutyl-3-oxo-2,3-dihydro-1H-isoindol-1-yl)acetyl]guanidine]: the melting point was found to be 212 °C. Also, the IC50 at NHE1 came to 11 nM.

For `NC(N)=NC(=O)CC1c2ccccc2C(=O)N1CC1CC1` (stereo not shown) [Example 8, N-[2-(2-Cyclopropylmethyl-3-oxo-2,3-dihydro-1H-isoindol-1-yl)acetyl]guanidine], the melting point is 229 °C. The IC50 at NHE1 was determined as 63 nM.

In turn, `CCN1C(=O)c2ccccc2C1CC(=O)N=C(N)N` (stereo not shown) [Example 6, N-[2-(2-Ethyl-3-oxo-2,3-dihydro-1H-isoindol-1-yl)acetyl]guanidine] displayed a melting point of 223 °C. Further, the IC50 on NHE1 was found to be 211 nM.

On to `Cc1ccc2c(c1)C(=O)N(CC(C)C)C2CC(=O)N=C(N)N` (stereo not shown) [Example 34, N-[2-(2-Isobutyl-5-methyl-3-oxo-2,3-dihydro-1H-isoindol-1-yl)acetyl]guanidine], for which the melting point amounted to 266 °C. In addition, the IC50 at NHE1 worked out at 25 nM.

For `CC(C)CN1C(=O)c2cc(Cl)c(Cl)cc2C1CC(=O)N=C(N)N` (stereo not shown) [Example 18, N-[2-(5,6-Dichloro-2-isobutyl-3-oxo-2,3-dihydro-1H-isoindol-1-yl)acetyl]guanidine], the melting point turned out to be 154 °C. Further, at NHE1, the IC50 was determined as 26 nM.

Consider `CC(C)CN1C(=O)c2cc(C(F)(F)F)ccc2C1CC(=O)N=C(N)N` (stereo not shown) [Example 14, N-[2-(2-Isobutyl-3-oxo-5-trifluoromethyl-2,3-dihydro-1H-isoindol-1-yl)-acetyl]-guanidine], for which the melting point was 224 °C. The IC50 on NHE1 was found to be 102 nM.

`CC(C)CN1C(=O)c2ccc(C(F)(F)F)cc2C1CC(=O)N=C(N)N` (stereo not shown) [Example 15, N-[2-(2-Isobutyl-3-oxo-6-trifluoromethyl-2,3-dihydro-1H-isoindol-1-yl)-acetyl]guanidine]: the melting point came to 154 °C. Besides, at NHE1, the IC50 turned out to be 16 nM.

`CC(C)CN1C(=O)c2ccccc2C1CC(=O)N=C(N)N` (single isomer, unassigned; (-)) [Example 3, (−)-N-[2-(2-Isobutyl-3-oxo-2,3-dihydro-1H-isoindol-1-yl)acetyl]guanidine] registered a melting point of 264 °C. Besides, the IC50 at NHE1 amounted to 50 nM.

In the case of `CC(C)CN1C(=O)c2cc(C(C)(C)C)ccc2C1CC(=O)N=C(N)N` (stereo not shown) [Example 11, N-[2-(5-tert-Butyl-2-isobutyl-3-oxo-2,3-dihydro-1H-isoindol-1-yl)acetyl]guanidine], the melting point lay within 262 to 263 °C. Further, the half-maximal inhibitory concentration (IC50) on NHE1 came to 11 nM.
